Measurements taken from ChEMBL document CHEMBL1201862, “PubChem BioAssay data set” (2004).
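Interpolation was linear, between the two tested concentrations surrounding the appropriate level; five concentrations were tested over 48 hours in 96-well plates. The concentration for 50% growth inhibition is given as GI50.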 Calls of active or inactive are those of the source. Rule as the data show it: active = GI50 up to about 1.1 µM and inactive = higher.

Experiments:
Assay in all cases: NCI tumour cell line growth inhibition, 48 h
MDA-N = system: MDA-N
KM12 = system: KM12
NCI/ADR-RES = system: NCI/ADR-RES
RXF 393 = system: RXF 393
DU-145 = system: DU-145
SK-OV-3 = system: SK-OV-3
UACC-62 = system: UACC-62
ACHN = system: ACHN
TK-10 = system: TK-10
SK-MEL-28 = system: SK-MEL-28
K562 = system: K562
UO-31 = system: UO-31
SK-MEL-5 = system: SK-MEL-5
IGROV-1 = system: IGROV-1
RPMI-8226 = system: RPMI-8226
OVCAR-4 = system: OVCAR-4
SNB-19 = system: SNB-19
SF-268 = system: SF-268
U-251 = system: U-251
NCI-H522 = system: NCI-H522

Measured: GI50

CC(=O)N1CN2C(=O)CCC2c2ccccc21 (stereo not given)
inactive: MDA-N > 100 µM | KM12 > 100 µM | NCI/ADR-RES > 100 µM | RXF 393 > 100 µM | DU-145 > 100 µM | SK-OV-3 > 100 µM | UACC-62 > 100 µM | ACHN > 100 µM | TK-10 > 100 µM | SK-MEL-28 > 100 µM | K562 > 100 µM | UO-31 > 100 µM | SK-MEL-5 > 100 µM | IGROV-1 > 100 µM | RPMI-8226 > 100 µM | OVCAR-4 > 100 µM | SNB-19 > 100 µM | SF-268 > 100 µM | U-251 > 100 µM | NCI-H522 > 100 µM

COCN1CCN=c2c1c1c3c(c4ccccc4n23)CCC1
inactive: MDA-N > 100 µM | KM12 > 100 µM | NCI/ADR-RES > 100 µM | RXF 393 > 100 µM | DU-145 > 100 µM | SK-OV-3 > 100 µM | UACC-62 > 100 µM | ACHN > 100 µM | TK-10 > 100 µM | SK-MEL-28 > 100 µM | K562 > 100 µM | UO-31 > 100 µM | SK-MEL-5 > 100 µM | IGROV-1 > 100 µM | RPMI-8226 > 100 µM | OVCAR-4 > 100 µM | SNB-19 > 100 µM | SF-268 > 100 µM | U-251 > 100 µM | NCI-H522 > 100 µM

CSc1ccc(/C=C2\N=C(c3ccccc3)N(c3nc4ccc(Sc5ccccc5)cc4[nH]3)C2=O)cc1
inactive: MDA-N 3.37 µM | KM12 15.3 µM | NCI/ADR-RES 19.4 µM | RXF 393 17.4 µM | DU-145 27.6 µM | SK-OV-3 14.7 µM | UACC-62 14.2 µM | ACHN 30.8 µM | TK-10 16.9 µM | SK-MEL-28 18.9 µM | K562 14 µM | UO-31 18.3 µM | SK-MEL-5 13.3 µM | IGROV-1 36.5 µM | RPMI-8226 20.2 µM | OVCAR-4 30.9 µM | SNB-19 24.9 µM | SF-268 27.6 µM | U-251 16.7 µM | NCI-H522 15.9 µM

C=C(C)[C@@H]1C[C@H]2O[C@](O)(C(=C)CC(=O)/C=C(/C)C[C@@H]3OC(=O)[C@]24O[C@@H]34)[C@H]1O
inactive: MDA-N > 100 µM | KM12 > 100 µM | NCI/ADR-RES > 100 µM | RXF 393 > 100 µM | DU-145 > 100 µM | SK-OV-3 > 100 µM | UACC-62 > 100 µM | ACHN > 100 µM | TK-10 > 100 µM | SK-MEL-28 > 100 µM | K562 > 100 µM | UO-31 > 100 µM | SK-MEL-5 > 100 µM | IGROV-1 > 100 µM | RPMI-8226 > 100 µM | OVCAR-4 > 100 µM | SNB-19 > 100 µM | SF-268 > 100 µM | U-251 > 100 µM | NCI-H522 > 100 µM

Cc1nc(C)c(N2CCN([N+](=O)[O-])CC2)c(O)n1
inactive: MDA-N > 100 µM | KM12 > 100 µM | NCI/ADR-RES > 100 µM | RXF 393 > 100 µM | DU-145 > 100 µM | SK-OV-3 > 100 µM | UACC-62 > 100 µM | ACHN > 100 µM | TK-10 > 100 µM | SK-MEL-28 > 100 µM | K562 > 100 µM | UO-31 > 100 µM | SK-MEL-5 > 100 µM | IGROV-1 > 100 µM | RPMI-8226 > 100 µM | OVCAR-4 > 100 µM | SNB-19 > 100 µM | SF-268 > 100 µM | U-251 > 100 µM | NCI-H522 > 100 µM
